In patent US20240307349A1, “METHODS FOR THE PREPARATION AND DOSE REGIMENS FOR USE OF SSTR4 AGONISTS AND SALTS THEREOF” (priority 2023, published 2024):

Tested on: participants with OA in the knee
Experiment: H0P-MC-OA03 Phase 2 placebo-controlled trial, osteoarthritis pain
Type: in vivo, human
From the text: The purpose of this study was to test whether Example 5 is efficacious in relieving osteoarthritis (OA) pain in the knee. Data was also collected to assess the safety and tolerability of Example 5 in this study population and previously discussed. Pharmacokinetic properties and pharmacodynamic effects were also be explored. The totality of data from this proof-of-concept study assessed the benefits and risks associated with Example 5.
OA03 was an 8-week, Phase 2, randomized, double-blind, placebo-controlled study that compared Example 5 versus placebo in participants with OA in the knee.
The primary clinical question of interest was “What is the treatment difference between Example 5 and placebo assessed using mean change from baseline to endpoint (Week 8) for average pain intensity (API) as measured using the numeric rating scale (NRS) in participants with OA of the knee regardless of initiation of rescue medication or other allowed concomitant medication and assuming that they would have continued initially randomized treatment condition?”
The key secondary clinical question of interest was: “What is the treatment difference between Example 5 and placebo assessed using mean change from baseline to endpoint (Week 8) for pain as measured by the WOMAC® (Western Ontario and McMaster Universities Arthritis Index) pain subscale in participants with OA of the knee regardless of initiation of rescue medication or other allowed concomitant medication and assuming that they would have continued initially randomized treatment condition?”
Participants were randomly assigned in the ratio of 2:1 to Example 5 or placebo. Based on tolerability, participants could take up to a maximum of 3 capsules orally (each capsule was 200 mg), twice daily (BID), approximately every 12 hours, for a total dose of 600 mg.
The protocol was amended to include a titration to the target dose of 600 mg. Investigators could reduce the dose from 600 to 400 mg after discussion with the participant due to tolerability as long as the change occurred before the end of Visit 4, that is, study Week 2. The medical monitor was contacted as needed.

SMILES: Cc1cccnc1OCC(C)(C)NC(=O)[C@H]1[C@@H]2CNC[C@@H]21.O=C(O)C(O)C(O)C(=O)O [Example 5, (1R,5S,6r)-N-(2-Methyl-1-((3-methylpyridin-2-yl)oxy)propan-2-yl)-3-azabicyclo[3.1.0]hexane-6-carboxamide L-tartrate sesquihydrate]
- Mean change from baseline assessment to endpoint for API as measured using the NRS (8 weeks after initial treatment administration, up to 600 mg Q12H, n = 135): −1.7
- key secondary objective: efficacy versus placebo, WOMAC pain subscale (Week 8): did not meet the prespecified threshold
- primary objective: efficacy versus placebo, API by weekly average of NRS (Week 8, osteoarthritic pain): did not meet the prespecified threshold
- mean change in pain intensity from baseline assessment to Week 8 using the WOMAC pain subscale (Week 8, up to 600 mg Q12H, n = 135): −2.6
